The nature of series [1]: Encapsulation efficiency of RNA in nanoparticle compositions (RIBOGREEN assay). Format: physicochemical. The protocol:
For nanoparticle compositions including an RNA, a QUANT-IT™ RIBOGREEN® RNA assay (Invitrogen Corporation Carlsbad, Calif.) can be used to evaluate the encapsulation of an RNA by the nanoparticle composition. The samples are diluted to a concentration of approximately 5 μg/mL, in a TE buffer solution (10 mM Tris-HCl, 1 mM EDTA, pH 7.5). 50 μL of the diluted samples are transferred to a polystyrene 96 well plate and either 50 μL of TE buffer or 50 μL of a 2% Triton X-100 solution is added to the wells. The plate is incubated at a temperature of 37° C. for 15 minutes. The RIBOGREEN® reagent is diluted 1:100 in TE buffer, and 100 μL of this solution is added to each well. The fluorescence intensity can be measured using a fluorescence plate reader (Wallac Victor 1420 Multilabel Counter; Perkin Elmer, Waltham, Mass.) at an excitation wavelength of, for example, about 480 nm and an emission wavelength of, for example, about 520 nm. The fluorescence values of the reagent blank are subtracted from that of each of the samples and the percentage of free RNA is determined by dividing the fluorescence intensity of the intact sample (without addition of Triton X-100) by the fluorescence value of the disrupted sample (caused by the addition of Triton X-100).
(§1) Initial studies were performed to compare the delivery efficiency of nanoparticle compositions including various compounds according to Formula (I), (IA), (IB), (II), (IIa), (IIb), (IIc), (IId), (IIe), (IIf), (IIg), or (III). The cationic lipid MC3 is a current standard in the art. Accordingly, the standard MC3 formulation including about 50 mol % MC3, about 10 mol % DSPC, about 38.5 mol % cholesterol, and about 1.5 mol % PEG-DMG was used as a basis for this study. Nanoparticle compositions including DSPC as a phospholipid, cholesterol as a structural lipid, PEG-DMG as a PEG lipid, an RNA, and a compound according to Formula (I), (IA), (IB), (II), (IIa), (IIb), (IIc), (IId), (IIe), (IIf), (IIg), or (III) selected from Compounds 1-159, 168-170, and 173-175 were prepared according to or via methods similar to those described in Examples 1 and 2. The ratios of the lipids were 50:10:38.5:1.5 mol % for the lipid according to Formula (I), (IA), (IB), (II), (IIa), (IIb), (IIc), (IId), (IIe), (IIf), (IIg), or (III):DSPC:cholesterol:PEG-DMG. The RNA used was an mRNA encoding luciferase (Luc) or hEPO, wherein each uridine was replaced N1-methyl pseudouridine. Tables 1A-1E summarize the content and characteristics of the formulations.

The next series concerns modified luciferase. Put plainly: Luciferase expression in liver, lung, spleen and femur 6 hours after intravenous administration to mice. The following applies: 6 hours after intravenous 0.5 mpk, mice. Format: in vivo. The protocol: The efficacy of the nanoparticle compositions presented in Table 1A was further evaluated by measuring the expression of modified luciferase in the liver, lung, spleen, and femur upon administration of a given composition. Formulations were administered intravenously to mice (n=3) at a dosage of 0.5 mpk and bioluminescence measured after 6 hours. The standard MC3 formulation and a PBS control were also tested. […] Flux in the liver was lowest for compositions including Compounds 58, 59, 137, and 141. Flux in the spleen was highest for compositions including Compounds 4, 7, 33, 34, 48, 53, 108, 129, 130, and 148, and lowest for compositions including Compounds 9, 59, 124, and 141.

A short description of series [2]: Particle size and polydispersity index of nanoparticle compositions (Zetasizer Nano ZS). Format: physicochemical. The protocol:
A Zetasizer Nano ZS (Malvern Instruments Ltd, Malvern, Worcestershire, UK) can be used to determine the particle size, the polydispersity index (PDI) and the zeta potential of the nanoparticle compositions in 1×PBS in determining particle size and 15 mM PBS in determining zeta potential.
as §1

Where [3] appears, read: Table 1A, lipid:DSPC:cholesterol:PEG-DMG 50:10:38.5:1.5 mol %.
The mark [4] stands for this setting: Table 1B, formulated with hEPO mRNA.

Turning to `CCCCCCCCCN(CCCCCCCC(=O)OC(CCCCCCCC)CCCCCCCC)CCCn1ccnc1` [Compound 8, Heptadecan-9-yl 8-((3-(1H-imidazol-1-yl)propyl)(nonyl)amino)octanoate], in series [1] (setting [3]), the EE is given as 95.8%. Further, in the series on modified luciferase, the “Total Flux, Liver” value was 7.87E+08; the “Total Flux, Lung” value turned out to be 4.06E+06; the “Total Flux, Spleen” value is recorded as 1.51E+08. In addition, the Size in series [2] (setting [3]) is given as 121.0 nm.
With `CCCCCCCCCOC(=O)CCCCCCCN(CCC#N)CCCCCCCC(=O)OC(CCCCCCCC)CCCCCCCC` [Compound 21, Heptadecan-9-yl 8-((2-cyanoethyl)(8-(nonyloxy)-8-oxooctyl)amino) octanoate], in series [1] (setting [3]), the EE is given as −15.1%. Further, the Size in series [2] (setting [3]) is recorded as 53.5 nm.
For the compound `CCCCCCCC/C=C\CCCCCCCCN(CCO)CCCCCCCC(=O)OC(CCCCCCCC)CCCCCCCC` [Compound 31, heptadecan-9-yl (Z)-8-((2-hydroxyethyl)(octadec-9-en-1-yl)amino) octanoate], in series [1] (setting [3]), the EE is 95.11%. For the same compound, in the series with modified luciferase, the “Total Flux, Liver” value amounted to 5.17E+09; the “Total Flux, Lung” value is on record as 7.55E+06; the “Total Flux, Spleen” value was 9.42E+07. The same compound gave a Size in series [2] (setting [3]) of 73.9 nm.
The corresponding values for `CCCCCCCCCOC(=O)CCCCCCCN(CCO)CCCCCCCC(=O)OC(CCCCCC)CCCCCCCC` (stereo not drawn) [Compound 32, nonyl 8-((2-hydroxyethyl)(8-oxo-8-(pentadecan-7-yloxy)octyl)amino) octanoate] are 94.87%, 8.52E+09, 1.16E+07, 1.70E+08 and 105.6 nm.
In the same order, the values of `CCCCCCCCCOC(=O)CCCCCCCN(CCO)CCCCCCCC(=O)OC(CCCCC)CCCCCCCC` (stereo not drawn) [Compound 33, nonyl 8-((2-hydroxyethyl)(8-oxo-8-(tetradecan-6-yloxy)octyl)amino) octanoate] are 95.66%, 1.78E+10, 2.92E+07, 3.77E+08 and 107.3 nm.
In the same order, the values of `CCCCCCCCCOC(=O)CCCCCCCN(CCO)CCCCCCCC(=O)OC(CCC)CCCCCCCC` (stereo not drawn) [Compound 34, dodecan-4-yl 8-((2-hydroxyethyl)(8-(nonyloxy)-8-oxooctyl)amino) octanoate] are 92.52%, 2.08E+09, 9.49E+06, 2.40E+08 and 133.8 nm.
Turning to `CCCCCCCCCOC(=O)CCCCCCCN(CCO)CCCCCCCC(=O)OC(C)CCCCCCCC` (stereo not drawn) [Compound 36, decan-2-yl 8-((2-hydroxyethyl)(8-(nonyloxy)-8-oxooctyl)amino) octanoate], in series [1] (setting [3]), the EE was found to be 81.45%. Also, in the series on modified luciferase, the “Total Flux, Liver” value was 2.65E+07; the “Total Flux, Lung” value turned out to be 5.82E+05; the “Total Flux, Spleen” value amounted to 6.14E+07.
As to `CCCCCCCCC(CCCCCCCC)OC(=O)CCCCCCCN(CCO)CCCCCCCCC1CC1CCCCCCCC` (stereo not drawn) [Compound 47, heptadecan-9-yl 8-((2-hydroxyethyl)(8-(2-octylyclopropyl)octyl)amino)octanoate], the EE in series [1] (setting [3]) worked out at 96.40%. Also, in the series on modified luciferase, the “Total Flux, Liver” value worked out at 4.86E+09; the “Total Flux, Lung” value was determined as 8.71E+06; the “Total Flux, Spleen” value amounted to 8.33E+07. This compound also returned a Size in series [2] (setting [3]) of 80.6 nm.
As for `CCCCCCCCC(CCCCCCCC)OC(=O)CCCCCCCN(CCO)CCCC(=O)OCCCC` [Compound 51, heptadecan-9-yl 8-((4-butoxy-4-oxobutyl)(2-hydroxyethyl)amino) octanoate], in series [1] (setting [3]), the EE was 89.83%. Besides, in the series on modified luciferase, the “Total Flux, Liver” value came out at 2.49E+07; the “Total Flux, Lung” value stood at 3.67E+05; the “Total Flux, Spleen” value is recorded as 2.80E+07.
In the case of `CCCCCCCCC(CCCCCCCC)OC(=O)CCCCCCCN(CCO)CCCC(=O)OCCCCC` [Compound 52, heptadecan-9-yl 8-((2-hydroxyethyl)(4-oxo-4-(pentyloxy)butyl)amino) octanoate], the EE in series [1] (setting [3]) is listed as 93.25%. In addition, in the series on modified luciferase, the “Total Flux, Liver” value worked out at 5.86E+08; the “Total Flux, Lung” value was found to be 2.80E+06; the “Total Flux, Spleen” value was 8.30E+07. This compound also had a Size in series [2] (setting [3]) of 130.5 nm.
In the same order, the values of `CCCCCCCCC(CCCCCCCC)OC(=O)CCCCCCCN(CCO)CCCC(=O)OCCCCCC` [Compound 53, heptadecan-9-yl 8-((4-(hexyloxy)-4-oxobutyl)(2-hydroxyethyl)amino) octanoate] are 95.8%, 2.02E+09, 2.47E+07, 8.54E+08 and 125.4 nm.
In the case of `CCCCCCCCCOC(=O)CCCCCCCN(CCO)CCCCCCCC(=O)OC(CC)CC` [Compound 59, nonyl 8-((2-hydroxyethyl)(8-oxo-8-(pentan-3-yloxy)octyl)amino) octanoate], the EE in series [1] (setting [3]) was determined as 94.44%. Moreover, in the series with modified luciferase, the “Total Flux, Liver” value turned out to be 2.87E+05; the “Total Flux, Lung” value is 4.41E+04; the “Total Flux, Spleen” value was 9.68E+04.
For the compound `CCCCCCCCCOC(=O)CCCCCCCN(CCCCCCCC(=O)OC(CCCCCCCC)CCCCCCCC)CCC(=O)O` [Compound 125, 3-((8-(Heptadecan-9-yloxy)-8-oxooctyl)(8-(nonyloxy)-8-oxooctyl)amino)propanoic acid], the EE in series [1] (setting [3]) is 79.6%. The compound also yielded a Size in series [2] (setting [3]) of 90.9 nm.
In the same order, the values of `CCCCCCCCCOC(=O)CCCCCCCN(CCCCCCCC(=O)OC(CCCCCCCC)CCCCCCCC)CCCN(C)S(C)(=O)=O` [Compound 173, Heptadecan-9-yl 8-((3-(N-methylmethylsulfonamido)propyl)(8-(nonyloxy)-8-oxooctyl)amino)octanoate] are 92.89% and 75.5 nm.
As to `CCCCCCCCCOC(=O)CCCCCCCN(CCCCCCCC(=O)OC(CCCCCCCC)CCCCCCCC)CCCOC(=O)NC` [Compound 175, Heptadecan-9-yl 8-((3-((methylcarbamoyl)oxy)propyl)(8-(nonyloxy)-8-oxooctyl)amino)octanoate], the EE in series [1] (setting [3]) worked out at 94.8%. Moreover, the Size in series [2] (setting [3]) was determined as 65.7 nm.
Consider `CCCCCCCCCOC(=O)CCCCCCCN(CCCCCCCC(=O)OC(CCCCCCCC)CCCCCCCC)CCCn1ccnn1` [Compound 179, Heptadecan-9-yl 8-((3-(1H-1,2,3-triazol-1-yl)propyl)(8-(nonyloxy)-8-oxooctyl)amino)octanoate], for which the EE in series [1] (setting [3]) is on record as 94.7%. This compound also showed a Size in series [2] (setting [3]) of 71.6 nm.
As to `CCCCCCCCC(CCCCCCCC)OC(=O)CCCCCCCN(CCO)CCCCCC(=O)OC(C)CCCCCCCCOC(C)=O` (stereo not drawn) [Compound 235, Heptadecan-9-yl 8-((6-((10-acetoxydecan-2-yl)oxy)-6-oxohexyl)(2-hydroxyethyl)amino)octanoate], in series [1] (setting [4]), the EE is reported as 40.9%. The same compound came in with a Size in series [2] (setting [4]) of 228 nm.
In the same order, the values of `CCCCCCCCCOC(=O)CCCCCCCN(CCCCCCCC(=O)OC(CCCCCCCC)CCCCCCCC)CCCC(N)=O` [Compound 243, Heptadecan-9-yl 8-((4-amino-4-oxobutyl)(8-(nonyloxy)-8-oxooctyl)amino)octanoate] are 99.4% and 90.6 nm.

These data come from patent US10857105B2, “Compounds and compositions for intracellular delivery of therapeutic agents” (ModernaTX, Inc., priority 2017, dated 2020).
